Laboratory results as given in publication PMC11880180, “Theranostic Near-Infrared Monoamine Oxidase Inhibitor (NMI) Protein Binding Interactions with MAOA and Albumin” (Pharmaceutical Research, 2025).

Target: T1, MAOA (monoamine oxidase A) (Homo sapiens, UniProt P21397)
T1 construct: recombinant human MAOA (M7316-1VL)
T1 sequence (P21397 1-527): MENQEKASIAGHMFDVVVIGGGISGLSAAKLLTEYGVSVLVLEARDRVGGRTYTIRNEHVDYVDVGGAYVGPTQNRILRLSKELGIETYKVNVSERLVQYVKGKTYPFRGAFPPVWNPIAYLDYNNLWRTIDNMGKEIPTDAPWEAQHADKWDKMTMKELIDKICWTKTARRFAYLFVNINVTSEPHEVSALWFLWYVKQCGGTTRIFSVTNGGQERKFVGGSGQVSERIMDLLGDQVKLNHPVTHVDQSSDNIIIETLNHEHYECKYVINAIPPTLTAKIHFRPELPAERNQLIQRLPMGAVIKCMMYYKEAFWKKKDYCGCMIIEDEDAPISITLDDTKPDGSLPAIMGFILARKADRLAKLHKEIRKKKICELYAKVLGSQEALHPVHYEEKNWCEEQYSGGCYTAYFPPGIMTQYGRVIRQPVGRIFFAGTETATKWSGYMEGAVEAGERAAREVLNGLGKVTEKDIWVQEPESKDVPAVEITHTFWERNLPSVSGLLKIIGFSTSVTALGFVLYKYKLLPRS
Assay: MAO-Glo activity assay with recombinant MAOA (IC50 […] in PEG, […] in PBS); fluorescent SDS-PAGE band of pure protein
Assay type: biochemical

IC50: 1600 nM
Compound: C#CCN(CCCNC(=O)CCCCC[N+]1=C(/C=C/C2=C(Cl)C(=C/C=C3\N(CCCCCC(=O)[O-])c4ccccc4C3(C)C)/CCC2)C(C)(C)c2ccccc21)CCCOc1ccc(Cl)cc1Cl [NMI]
